One substance from publication PMC9475553, “SHF Acts as a Novel Tumor Suppressor in Glioblastoma Multiforme by Disrupting STAT3 Dimerization” (Advanced Science, 2022) can be followed below.

Assay [1] relates to STAT3 dimerization. The experiment in a line: FRET assay: STAT3 dimerization in U251 cells. It counts as cell-based, human. As to conditions: U251 cells transfected for 24 h, then C16 2 h; n=3, P < 0.01. As for the experimental part: Spectral fluorescence resonance energy transfer (FRET) assay was used to examine the dimerization of STAT3 and interaction between STAT3 and SHF. The procedure was performed as described previously.^[ [46] ^] Briefly, U251 cells were seeded at a density of 20 000 cells/compartment on coverslips coated with 1% poly‐L‐lysine (Sigma) in 24 well‐plates. For detecting SHF inhibiting STAT3 dimerization, ectopic SHF‐expressing stable U251 cells were transfected with STAT3‐DsRed and STAT3‐EGFP. For detecting SHF binding STAT3, U251 cells were transfected with SHF‐DsRed and STAT3‐EGFP. Cells were imaged on a Leica TCS SP8 confocal microscope (40× objective and 10× objective, 488 nm Argon laser line) after 24 h. Cells were excited with 488 nm laser (donor), and the emission of the acceptor DsRed was recorded at 565 nm. The FRET efficiency was calculated on a pixel‐by‐pixel basis with the following equation: FRET efficiency = FRETcorr / (FRETcorr + Donor). […] To increase the reliability of the calculations and prevent noise from distorting the calculated ratio, we excluded pixels below 50 intensity units and saturated pixels from the calculations and set their intensities to zero. […]
Supplementary Fig. 8 Quantitative analysis of normalized FRET ratio in U251 cells (n=3, […]

Assay [2] deals with STAT3/DNMT1 interaction. Put plainly: IP assay: ectopic STAT3/DNMT1 interaction in 293T cells. It counts as cell-based, human. Conditions: 293T cells expressing ectopic STAT3 and DNMT1, C16 for 2 h. As for the experimental part: (§1) Figure 7 Peptide derived from the STAT3‐binding sites of SHF is an effective GBM suppressive strategy. A) Binding model between SHF and STAT3 using ZDOCK server. […] B) IF staining determined the cell penetrability and nuclear‐localization of C16. U251 cells were incubated with C16 or SC for 2 h and performed IF staining using the indicated antibodies. Bars, 10 µm. C) The statical analysis of adsorption equilibrium assay detecting the binding of C16 and SC with recombinant STAT3. D) Pull‐down assay indicating C16 binds STAT3. GST‐STAT3 was incubated with C16 or SC for 2 h, and the pull‐down assay was performed using Anti‐His magnetic beads. E) IP assay showing the effect of C16 on STAT3 dimerization. 293T cells transfected with indicated vectors were incubated with C16 for 2 h. The relative quantification of STAT3 dimerization was listed. F) IP assay detecting the effect of C16 on the interaction of STAT3 and DNMT1. […] The relative quantification of STAT3/DNMT1 interaction was listed. […] The relative quantification of STAT3/DNMT1 interaction was listed. […] Positive cells were quantified 20 randomly selected fields per mouse (n = 6, Student's t‐test, **p < 0.01). […]
Immunoprecipitation (IP) experiments were performed to analyze the protein interactions. […] Precipitated products were analyzed by Western blot using the specified antibodies. […]

Assay [3] deals with STAT3 targeted genes. The experiment in a line: qRT-PCR of STAT3 targeted genes in derived xenografts. The format is in vivo, mouse. Conditions: 10 µg i.p. once every 2 days, n = 6, p < 0.01. As for the experimental part:
as §1, with “293T cells transfected with indicated vectors were incubated with C16 for 2 h.” left out, “listed.” for “listed. F) IP assay detecting the effect of C16 on the interaction of STAT3 and DNMT1.”
Total RNA was extracted using TRIzol reagent (Invitrogen) according to the manufacturer's instructions. cDNA was synthesized with the M‐MLV Reverse Transcriptase Kit (Cwbio, Beijing, China). PCR analyses were conducted to quantify mRNA expression using Real SYBR Mixture (Cwbio) on a Lightcycler 480 II instrument (Roche Applied Science). […]
A general note: In qPCR the cycle at which signal appears reflects the starting amount.

Turning to “C16: peptide spanning SHF amino acids 388–421, palmitic acid at the N-terminus, amidated C-terminus, 3× His tags added to the C-terminal (PFSSVPEIVHHYASRKLPIKGAEHMSLLYPVAIR; palmitic acid at the N-terminus; amidated C-terminus; left off: 3× His tags, C-terminal, kept)”, the “inhibition of STAT3 dimerization (FRET)” value in assay [1] is on record as “effectively inhibits STAT3 dimerization”. Besides, the “ectopic STAT3/DNMT1 interaction” value in assay [2] is reported as “decrease”. Besides, the “STAT3 targeted gene expression in derived xenografts” value in assay [3] is reported as “significantly down‐regulated”.
